Measured values published in patent publication EP4778922A1, “BICYCLIC COMPOUND, AND PREPARATION METHOD THEREFOR AND PHARMACEUTICAL USE THEREOF” (Shanghai Jeyou Pharmaceutical Co., Ltd., priority 2023, dated 2025).
pIC50: −log10 of the molar value. Like-named read-outs stand apart in the source and are kept apart here.

Key:
[1] = test system: 22RV1 cells; assay: Cell proliferation inhibition assay in 22RV1 cells (CellTiter-Glo, 7 days); format: cell-based, human; conditions: Homo sapiens
Method: • 1. The human prostate cancer cell lines 22RV1 and LNCaP were purchased from ATCC. […] The cell concentration was adjusted to an appropriate concentration (determined based on the results of cell density optimization experiments), and the cells were seeded into a 96-well plate. A 100 µL cell suspension was added, resulting in 3000 cells per well. […] On the second day, for 22Rv1 cells, test compounds at different concentrations were added, and the cells were incubated at 37°C in a 5% CO2 incubator for 7 days; for LNCaP cells, test compounds at different concentrations were added first, and after 1 hour of treatment, 0.2 nM DHT was added. The cells were then incubated at 37°C in a 5% CO2 incubator for 7 days. • 4. After the incubation period, a volume of CellTiter-Glo detection reagent equal to the volume of the culture medium was added to each well. The plate was shaken and mixed thoroughly for 5 minutes, then incubated at room temperature for 10 minutes. Readings were taken using a PerkinElmer EnVision microplate reader. • 5.
The IC50 curve was fitted and the IC50 value was calculated using the software GraphPad Prism 8 with the calculation formula XY-analysis/Nonlinear regression (curve fit)/Dose response-Inhibition/log (inhibitor) vs. response-Variable slope (four parameters).

[2] = Mouse pharmacokinetic test; format: in vivo, ICR mice; conditions: plasma, 30 mg/kg, PO-30mpk; for Tmax: read-out: Tmax
Method: Formulation preparation: The dosing solutions were prepared on the day of administration.
Six healthy male naive ICR mice weighing 25-30 g were selected and divided into two groups (intravenous and oral groups), with three mice in each group, and administered a single dose. […] Feeding was resumed 4 h after administration. Timing was initiated following intravenous and oral administration. […] The collected whole blood was briefly vortexed twice for mixing, placed on wet ice, and centrifuged at 4°C and 8000 rpm for 5 min within 1 h. The supernatant plasma was collected and stored at -80°C until processing and analysis. Table 3: Pharmacokinetics in mice

Row | pIC50 ([1]; 168 h) | SMILES | pIC50 ([1]; 22Rv1, 168 h) | AUC(0-inf) ([2]; po) [µg·h/mL] | Cmax ([2]; po) [ng/mL] | half-life ([2]; po) [h] | Tmax ([2]; po) [h] | further results
1 | – | CC(C)(c1ccc(-c2ccc(OCc3cccc(S(C)(=N)=O)n3)cc2)cc1)c1cc(Cl)c(OCCCl)c(C#N)c1 (stereo not drawn) [Compound 188] | 5.99 | 211 | 17300 | 7.5 | 3 | –
2 | – | CC(C)(c1ccc(-c2ccc(OCc3ccnc(N4CC[C@H](S(C)(=O)=O)C4)n3)cc2)cc1)c1cc(Cl)c(OCCCl)c(C#N)c1 [Compound 202] | 6.18 | 202 | 8880 | 18.5 | 4 | –
3 | – | CC(C)(c1ccc(-c2ccc(OCc3ncc(P(C)(C)=O)s3)cc2)cc1)c1cc(Cl)c(OCCCl)c(C#N)c1 [Compound 221] | 5.98 | 464 | 19300 | 10.4 | 5 | –
4 | – | COc1c(Cl)cc(C(C)(C)c2ccc(-c3ccc(OCc4ccnc(P(C)(C)=O)n4)cc3)cc2)cc1C#N [Compound 237] | 6.07 | 213 | 16200 | 4.2 | 3 | –
5 | – | CC(C)(c1ccc(-c2ccc(OCc3ccnc(N4CC5(CC(S(C)(=N)=O)C5)C4)n3)cc2)cc1)c1cc(Cl)c(OCCCl)c(C#N)c1 (stereo not drawn) [Compound 245] | 6.00 | 181 | 11000 | 7.3 | 5 | –
6 | – | CC(C)(c1ccc(-c2ccc(COc3ccnc(P(C)(C)=O)n3)cc2)cc1)c1cc(Cl)c(OCCCl)c(C#N)c1 [Compound 253] | 5.97 | 298 | 20800 | 7.3 | 5 | –
7 | – | CNS(=O)(=O)C1CN(c2nccc(COc3ccc(-c4ccc(C(C)(C)c5cc(Cl)c(OCCCl)c(C#N)c5)cc4)nc3)n2)C1 [Compound 258] | 6.20 | 323 | 39200 | 5.2 | 3 | –
8 | – | CC(C)(c1ccc(-c2ncc(OCc3ccc(-c4cnc(P(C)(C)=O)nc4)cc3)cn2)cc1)c1cc(Cl)c(OCCCl)c(C#N)c1 [Compound 272] | 6.19 | 755 | 53200 | 5.8 | 4 | –
9 | 6.01 | CC(C)(c1ccc(-c2ccc(Oc3ccnc(P(C)(C)=O)n3)nc2)cc1)c1cc(Cl)c(OCCCl)c(C#N)c1 [Compound 326] | – | – | – | – | – | –
10 | 5.95 | CC(C)(c1ccc(-c2ccc(OCC3CC4(C3)CS(=N)(=O)C4)cn2)cc1)c1cc(Cl)c(OCCCl)c(C#N)c1 (stereo not drawn) [Compound 328] | – | – | – | – | – | –
11 | 6.41 | CC(C)(c1ccc(-c2ccc(OCc3ccnc(N4CC5(CCS5(=N)=O)C4)n3)cc2)cc1)c1cc(Cl)c(OCCCl)c(C#N)c1 (stereo not drawn) [Compound 329] | – | – | – | – | – | –
12 | 6.55 | CC(C)(c1ccc(-c2ccc(OCCOc3nccc(P(C)(C)=O)n3)cc2)cc1)c1cc(Cl)c(OCCCl)c(C#N)c1 [Compound 330] | – | – | – | – | – | –
13 | 6.17 | CC(C)(c1ccc(-c2ccc(OCc3ccnc(N4CC(S(=N)(=O)C5CC5)C4)n3)cn2)cc1)c1cc(Cl)c(OCCCl)c(C#N)c1 (stereo not drawn) [Compound 336] | – | – | – | – | – | –
14 | 6.06 | CC(C)(c1ccc(-c2ccc(OCC3CC4(C3)CN(c3ccnc(P(C)(C)=O)n3)C4)cc2)cc1)c1cc(Cl)c(OCCCl)c(C#N)c1 [Compound 393] | – | – | – | – | – | –

Row | SMILES | pIC50 ([1]; 168 h) | pIC50 ([1]; 22Rv1, 168 h) | AUC(0-inf) ([2]; po) [µg·h/mL] | Cmax ([2]; po) [ng/mL] | half-life ([2]; po) [h] | Tmax ([2]; po) [h] | further results
15 | CCCOc1c(Cl)cc(C(C)(C)c2ccc(-c3ccc(OCc4ccnc(P(C)(C)=O)n4)cc3)cc2)cc1C#N [Compound 191] | 6.39 | – | – | – | – | – | AUC(0-inf) [2]: 481 µg·h/mL; Cmax [2]: 25000 ng/mL; half-life [2]: 13.2 h; Tmax [2]: 4 h
